Molecules are shown by their SMILES. Calls of active or inactive are those of the source.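 How the source made its calls: active means compounds blocking the phosphatase with IC50 at or below a set limit; inactive means the rest.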 A value given as a limit tells only on which side of the number the result lay.

A word on the IC50: it is the concentration at which inhibition is half-maximal.

For this assay, the target named is Tyrosine-protein phosphatase non-receptor type 5 (Homo sapiens) (UniProt P54829). In words: PTPN5 inhibition measured colorimetrically – biochemical, colorimetric absorbance, orthogonal assay for STEP inhibitor project, dose response (AID 624207). The settings on record: recombinant STEP, pNPP colorimetric absorbance.
Tyrosine-protein phosphatase non-receptor type 5 (Homo sapiens), sequence (P54829 whole entry, looked up): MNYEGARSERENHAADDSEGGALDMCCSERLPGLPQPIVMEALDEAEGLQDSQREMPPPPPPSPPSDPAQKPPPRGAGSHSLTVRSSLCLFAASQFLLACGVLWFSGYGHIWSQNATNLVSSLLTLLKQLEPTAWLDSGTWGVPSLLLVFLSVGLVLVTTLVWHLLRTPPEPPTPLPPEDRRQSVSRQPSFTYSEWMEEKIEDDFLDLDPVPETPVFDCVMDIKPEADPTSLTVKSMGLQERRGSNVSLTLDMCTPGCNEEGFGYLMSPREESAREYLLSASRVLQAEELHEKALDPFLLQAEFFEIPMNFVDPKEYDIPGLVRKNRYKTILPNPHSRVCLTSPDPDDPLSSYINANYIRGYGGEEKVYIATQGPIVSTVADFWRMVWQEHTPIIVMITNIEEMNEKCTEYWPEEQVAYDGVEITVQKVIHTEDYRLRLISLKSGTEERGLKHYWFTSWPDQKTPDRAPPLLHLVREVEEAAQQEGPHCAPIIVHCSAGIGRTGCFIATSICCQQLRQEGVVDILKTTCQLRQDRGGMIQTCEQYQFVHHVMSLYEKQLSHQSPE
Take `S=C1NC(C23CC4CC(CC(C4)C2)C3)=CC(c2ccc3c(c2)OCO3)N1` (centres undefined): the IC50 was > 80 µM (inactive).
`CC1=C(O)C(=O)C(C2=C(O)C(=O)C(C)=C(O)C2=O)=C(O)C1=O`: the IC50 was > 80 µM (inactive).
To `COc1ccc(OC)c(N2C(=O)[C@@H]3C(c4ccccc4Cl)=NO[C@@H]3C2=O)c1` belongs > 80 µM (inactive); to `CCOc1cc(/C=N/N=C2/NC(=O)C(CC(=O)O)S2)ccc1OCc1ccc(Cl)cc1Cl` (centres undefined), > 80 µM (inactive).
As for `CSc1ccc(C=NNc2ccc(S(=O)(=O)Nc3ccccc3C(=O)O)cc2[N+](=O)[O-])cc1`, the IC50 was 4.99 µM.
To `O=C1C(=O)N(CCCO)C(c2ccc(Br)cc2)/C1=C(\O)c1ccc(Br)cc1` (centres undefined) belongs “inactive”.
To `S=C1NC2=C(CCCC2=C2SCCS2)C(c2ccccc2)N1` (centres undefined) belongs “inactive”; to `O=C(NN=Cc1ccccc1O)c1cccc([N+](=O)[O-])c1`, 15.8 µM.
As for `COc1ccc(/C=N/N=C2/NC(=O)C(CC(=O)O)S2)cc1OCc1ccc(Cl)cc1Cl` (centres undefined), the figure is 13.6 µM.

Values taken from PubChem BioAssay AID624207 (Sanford-Burnham Center for Chemical Genomics, 2012).
